We go through 24 molecules from patent US20230042881A1, “MODULATORS OF INTEGRATED STRESS RESPONSE PATHWAY” (Praxis Biotech LLC, priority 2021, published 2023).

One assay deals with ATF4. Put plainly: ATF4 expression inhibition assay (ATF4 5′UTR luciferase reporter, thapsigargin-stressed). The format is cell-based. Particulars: Homo sapiens, HEK-293T, read-out: ATF4 inhibition. The procedure:
The ATF4 reporter was prepared by fusing the human full length 5′UTR of ATF4 (NCBI Accession No. BC022088.2) upstream of the firefly luciferase coding sequence lacking the initiator methionine. The fused sequence was cloned into pLenti-EF1a-C-Myc-DDK-IRES-Puro cloning vector (Origen #PS100085) using standard methods.
HEK293T cells carrying the ATF4 luciferase reporter were plated on 96-well plates (Nunc) at 10,000 cells per well. Cells were treated two days after seeding with 100 nM thapsigargin (Tg) (Sigma-Aldrich #T9033) in the presence of different concentrations of selected compounds ranging from 0.1 nM to […]. Cells without treatment or cells treated with Tg alone were used as controls. Assay plates containing cells were incubated for 3 hours at 37° C.
Luciferase reactions were performed using Luciferase Assay System (Promega #E1501) as specified by the manufacturer. Luminescence was read with an integration time of 1 s and a gain of 110 using a Cytation-5 multi-mode microplate reader (BioTek).
For orientation: Reporter assays use an easily measured gene product as a stand-in for the process of interest.

Assay [1] relates to Chinese hamster ovary (CHO) cells. Put plainly: Protein synthesis assay (puromycin incorporation, Western blot). The format is cell-based. To be noted: Cricetulus griseus, read-out: % Protein synthesis relative to untreated (1 μM test compound). As for the experimental part: Chinese hamster ovary (CHO) cells were maintained at 37° C. and 5% CO2 in Dulbecco's Modified Eagle's Media (DMEM) supplemented with 10% fetal bovine serum, 2 mM L-glutamine, 100 U/ml penicillin, and 100 μg/ml streptomycin. After reaching 80% of confluence, cells were detached and seeded on 6 well plates in complete media, allowed to recover overnight and treated for 2 hours with 1 μM of the test compound (to assess protein synthesis levels in unstressed condition), or for 2 hours with 300 nM Tg in the presence of 1 μM of the test compound (to assess the recovery of protein synthesis in a stressed condition). Cells with Tg alone were used as controls.
After the 2 hours treatments, media were replaced by adding 10 μg/ml puromycin (Sigma Aldrich #P8833) in complete media for 30 min. Media were removed and cells were lysed with SDS-PAGE lysis buffer. Lysates were transferred to 1.5 ml tubes and sonicated for 3 min and total protein amount were quantified using BCA Protein Assay Kit (Pierce). Equal amount of protein (30 μg) was loaded on SDS-PAGE gels.
A HRP-conjugated secondary antibody (Rockland) was employed to detect immune-reactive bands using enhanced chemiluminescence (ECL Western Blotting Substrate, Pierce). Quantification of protein bands was done by densitometry using ImageJ software.
The percentage levels were normalized to the media alone condition, which correspond to 100% protein synthesis. […]

Where [2] appears, read: HEK293T cells carrying ATF4 luciferase reporter, 100 nM thapsigargin (Tg), 3 hours at 37° C.
The mark [3] stands for this setting: unstressed CHO cells (without Tg), 2 hours, 1 μM test compound, media alone = 100%.

pIC50: −log10 of the molar value. Like-named read-outs stand apart in the source and are kept apart here.

Consider `O=C(COc1ccc(Cl)cc1)N[C@H]1CC[C@H](C(=O)Nc2ccc3cc(Cl)ccc3n2)CC1` [Compound 1, trans-4-(2-(4-chlorophenoxy)acetamido)-N-(6-chloroquinolin-2-yl)cyclohexane-1-carboxamide], for which the pIC50 in the assay with ATF4 (3 h) is more than 8.00. Further, the activity at 1 µM in assay [1] (CHO, 2 h) came to 91.8%.
Consider `O=C(N[C@H]1CC[C@H](C(=O)Nc2ccc3cc(Cl)ccc3n2)CC1)c1ccc2cc(Cl)ccc2n1` [Compound 2, trans-6-chloro-N-(4-((6-chloroquinolin-2-yl)carbamoyl)cyclohexyl)quinoline-2-carboxamide], for which the pIC50 in the assay on ATF4 (setting [2]) is more than 8.00. The activity at 1 µM in assay [1] (setting [3]) amounted to 163%.
Turning to `O=C(COc1ccc(Cl)c(F)c1)N[C@H]1CC[C@H](C(=O)Nc2ccc3cc(Cl)ccc3n2)CC1` [Compound 3, trans-4-(2-(4-chloro-3-fluorophenoxy)acetamido)-N-(6-chloroquinolin-2-yl)cyclohexane-1-carboxamide], in the assay with ATF4 (setting [2]), the pIC50 was more than 8.00. Besides, the activity at 1 µM in assay [1] (setting [3]) turned out to be 188%.
With `O=C(N[C@H]1CC[C@H](C(=O)Nc2ccc3cc(Cl)ccc3n2)CC1)c1cc2cc(Cl)ccc2o1` [Compound 4, trans-5-chloro-N-(4-((6-chloroquinolin-2-yl)carbamoyl)cyclohexyl)benzofuran-2-carboxamide], the pIC50 in the assay on ATF4 (setting [2]) is more than 8.00. Further, the activity at 1 µM in assay [1] (setting [3]) was 204%.
The like results for `O=C(N[C@H]1CC[C@H](C(=O)Nc2ccc3cc(Cl)ccc3n2)CC1)C1CNc2cc(Cl)ccc2O1` (stereo partly drawn) [Compound 5, trans-6-chloro-N-(4-((6-chloroquinolin-2-yl)carbamoyl)cyclohexyl)-3,4-dihydro-2H-benzo[b][1,4]oxazine-2-carboxamide] were, in that order, more than 8.00 and 195%.
Regarding `O=C(N[C@H]1CC[C@H](C(=O)Nc2ccc3cc(Cl)ccc3n2)CC1)[C@H]1CNc2cc(Cl)ccc2O1` [Compound 6, trans-(R)-6-chloro-N-(4-((6-chloroquinolin-2-yl)carbamoyl)cyclohexyl)-3,4-dihydro-2H-benzo[b][1,4]oxazine-2-carboxamide], the pIC50 in the assay with ATF4 (setting [2]) was more than 8.00. Moreover, the activity at 1 µM in assay [1] (setting [3]) was found to be 100%.
With `O=C(N[C@H]1CC[C@H](C(=O)Nc2ccc3cc(Cl)ccc3n2)CC1)[C@@H]1CNc2cc(Cl)ccc2O1` [Compound 7, trans-(S)-6-chloro-N-(4-((6-chloroquinolin-2-yl)carbamoyl)cyclohexyl)-3,4-dihydro-2H-benzo[b][1,4]oxazine-2-carboxamide], the pIC50 in the assay on ATF4 (setting [2]) is more than 8.00. Further, in assay [1] (setting [3]), the activity at 1 µM is 115%.
For the molecule `O=C(Nc1ccc2cc(Cl)ccc2n1)C1CCN(C[C@@H](O)COc2ccc(Cl)c(F)c2)CC1` [Compound 8, (R)-1-(3-(4-chloro-3-fluorophenoxy)-2-hydroxypropyl)-N-(6-chloroquinolin-2-yl)piperidine-4-carboxamide], the pIC50 in the assay with ATF4 (setting [2]) is 7.00 to 8.00. For the same molecule, in assay [1] (setting [3]), the activity at 1 µM came to 156%.
On to `O=C(Nc1ccc2cc(Cl)ccc2n1)C1CCN(C[C@H](O)COc2ccc(Cl)c(F)c2)CC1` [Compound 9, (S)-1-(3-(4-chloro-3-fluorophenoxy)-2-hydroxypropyl)-N-(6-chloroquinolin-2-yl)piperidine-4-carboxamide], for which the pIC50 in the assay on ATF4 (setting [2]) is 6.00 to 7.00. Also, the activity at 1 µM in assay [1] (setting [3]) stood at 156%.
Turning to `O=C(Nc1ccc2cc(Cl)ccc2n1)C1CCN(CCCOc2ccc(Cl)c(F)c2)CC1` [Compound 10, 1-(3-(4-chloro-3-fluorophenoxy)propyl)-N-(6-chloroquinolin-2-yl)piperidine-4-carboxamide], in the assay with ATF4 (setting [2]), the pIC50 is 7.00 to 8.00. Besides, the activity at 1 µM in assay [1] (setting [3]) was 153%.
For `O=C(Nc1ccc2cc(Cl)ccc2n1)[C@H]1CC[C@H](NCCOc2ccc(Cl)c(F)c2)CC1` [Compound 11, trans-4-(2-(4-chloro-3-fluorophenoxy)ethylamino)-N-(6-chloroquinolin-2-yl)cyclohexane-1-carboxamide], in the assay with ATF4 (setting [2]), the pIC50 is 6.00 to 7.00. Moreover, the activity at 1 µM in assay [1] (setting [3]) came to 150%.
In the case of `O=C(C[C@H]1CC[C@H](NC(=O)COc2ccc(Cl)c(F)c2)CC1)Nc1ccc2cc(Cl)ccc2n1` [Compound 21, trans-2-(4-chloro-3-fluorophenoxy)-N-(4-(2-((6-chloroquinolin-2-yl)amino)-2-oxoethyl)cyclohexyl)acetamide], in the assay on ATF4 (3 h), the pIC50 is 6.00 to 7.00.
Take `O=C(NC[C@H]1CC[C@H](C(=O)Nc2ccc3cc(Cl)ccc3n2)CC1)c1cnc(C(F)F)cn1` [Compound 23, trans-N-((4-((6-chloroquinolin-2-yl)carbamoyl)cyclohexyl)methyl)-5-(difluoromethyl)pyrazine-2-carboxamide]: in the assay on ATF4 (setting [2]), the pIC50 was less than 6.00.
On to `O=C(NC[C@H]1CC[C@H](C(=O)Nc2ccc3cc(Cl)ccc3n2)CC1)c1ccc(C(F)(F)F)nc1` [Compound 37, trans-N-((4-((6-chloroquinolin-2-yl)carbamoyl)cyclohexyl)methyl)-6-(trifluoromethyl)nicotinamide], for which the pIC50 in the assay on ATF4 (setting [2]) is 6.00 to 7.00.
On the same count and under the same terms, the result for `O=C(NC[C@H]1CC[C@H](C(=O)Nc2ccc3cc(Cl)ccc3n2)CC1)c1ccc(C(F)(F)F)cn1` [Compound 38, trans-N-((4-((6-chloroquinolin-2-yl)carbamoyl)cyclohexyl)methyl)-5-(trifluoromethyl)picolinamide] reads 6.00 to 7.00; that for `O=C(NC[C@H]1CC[C@H](C(=O)NCc2cc3cc(Cl)ccc3o2)CC1)c1ccc(C(F)(F)F)nc1` [Compound 51, N-((trans-4-(((5-chlorobenzofuran-2-yl)methyl)carbamoyl)cyclohexyl)methyl)-6-(trifluoromethyl)nicotinamide], 6.00 to 7.00.
In the case of `O=C(NC[C@H]1CC[C@H](C(=O)NCc2cc3cc(Cl)ccc3o2)CC1)c1ccc(C(F)(F)F)cn1` [Compound 52, N-((trans-4-(((5-chlorobenzofuran-2-yl)methyl)carbamoyl)cyclohexyl)methyl)-5-(trifluoromethyl)picolinamide], in the assay with ATF4 (setting [2]), the pIC50 is 6.00 to 7.00.
With `O=C(CO[C@H]1C[C@@H](OC(F)(F)F)C1)NN1CCC(C(=O)NCc2cc3cc(Cl)ccc3o2)CC1` [Compound 56, N-((5-chlorobenzofuran-2-yl)methyl)-1-(2-(cis-3-(trifluoromethoxy)cyclobutoxy)acetamido)piperidine-4-carboxamide], the pIC50 in the assay on ATF4 (setting [2]) was 6.00 to 7.00.
In the case of `O=C(CO[C@H]1C[C@@H](OC(F)(F)F)C1)N[C@H]1CC[C@H](C(=O)NCc2cc3cc(Cl)ccc3o2)CC1` [Compound 59, trans-N-((5-chlorobenzofuran-2-yl)methyl)-4-(2-(cis-3-(trifluoromethoxy)cyclobutoxy)acetamido)cyclohexane-1-carboxamide], the pIC50 in the assay with ATF4 (setting [2]) was 6.00 to 7.00.
In the case of `O=C(CO[C@H]1C[C@@H](OC(F)(F)F)C1)N[C@H]1CC[C@H](C(=O)NCC2CNc3cc(Cl)ccc3O2)CC1` (stereo partly drawn) [Compound 79, trans-N-((6-chloro-3,4-dihydro-2H-benzo[b][1,4]oxazin-2-yl)methyl)-4-(2-(cis-3-(trifluoromethoxy)cyclobutoxy)acetamido)cyclohexane-1-carboxamide], in the assay with ATF4 (setting [2]), the pIC50 was 6.00 to 7.00.
Take `O=C(CO[C@H]1C[C@@H](OC(F)(F)F)C1)NN1CCC(C(=O)NCC2CNc3cc(Cl)ccc3O2)CC1` (stereo partly drawn) [Compound 80, N-((6-chloro-3,4-dihydro-2H-benzo[b][1,4]oxazin-2-yl)methyl)-1-(2-(cis-3-(trifluoromethoxy)cyclobutoxy)acetamido)piperidine-4-carboxamide]: the pIC50 in the assay on ATF4 (setting [2]) was 6.00 to 7.00.
In the case of `O=C(CO[C@H]1C[C@@H](OC(F)(F)F)C1)N[C@H]1CC[C@H](C(=O)Nc2nc3cc(Cl)ccc3o2)CC1` [Compound 101, trans-N-(5-chlorobenzo[d]oxazol-2-yl)-4-(2-(cis-3-(trifluoromethoxy)cyclobutoxy)acetamido)cyclohexanecarboxamide], the pIC50 in the assay on ATF4 (3 h) is 6.00 to 7.00.
Take `O=C(CO[C@H]1C[C@@H](OC(F)(F)F)C1)NN1CCC(C(=O)Nc2nc3cc(Cl)ccc3s2)CC1` [Compound 121, N-(5-chlorobenzo[d]thiazol-2-yl)-1-(2-(cis-3-(trifluoromethoxy)cyclobutoxy)acetamido)piperidine-4-carboxamide]: the pIC50 in the assay with ATF4 (setting [2]) was 6.00 to 7.00.
`O=C(Nc1nc2cc(Cl)ccc2s1)[C@H]1CC[C@H](C(=O)N[C@H]2C[C@@H](OC(F)(F)F)C2)CC1` [Compound 123]: the pIC50 in the assay with ATF4 (setting [2]) was 6.00 to 7.00.
